Results from ChEMBL document CHEMBL1143365, “Function-oriented synthesis applied to the anti-botulinum natural product toosendanin” (Bioorg Med Chem, 2009).
Activity calls are given as the source filed them. The calls are words filed in the database; no cut-off is given here.

Assays:
[1] = system: Mus musculus; assay: Antibotulinum activity against botulinum neurotoxin serotype A-induced toxicity in iv dosed mouse after 48 hrs; format: functional, organism-based
[2] = organism: Mus musculus; assay: Toxicity in mouse at 2.5 mM; format: organism-based; details: in vivo, 2500 µM
[3] = system: Mus musculus; assay: Antibotulinum activity against botulinum neurotoxin serotype A-induced toxicity in iv dosed mouse assessed as time to death; format: functional

Compound	Activity [1]	Activity [2]	Activity [3] [h]
CC(=O)OC1C(=O)CC(C)(C)C23OC2CC(c2ccccc2)C13C (racemic)	inactive	Non-toxic	–
CC(=O)O[C@@H]1C[C@H](O)[C@@]23CO[C@@H](O)[C@]1(C)[C@@H]2C[C@@H](O)[C@]1(C)[C@@H]3C(=O)[C@H](OC(C)=O)[C@@]2(C)[C@H](c3ccoc3)C[C@H]3O[C@]321 [TOOSENDANIN]	–	–	7.1
